Each compound was assayed against SHP2 (Homo sapiens (Human), UniProt Q06124) (assay: SHP2 Allosteric Inhibition Assay). Conditions: 0.5 nM SHP2 activated with 0.5 μM peptide IRS1_pY1172(dPEG8)pY1222; surrogate substrate DiFMUP; prompt fluorescence.
Format: biochemical
Description: SHP2 Allosteric Inhibition Assay
SHP2 is allosterically activated through binding of bis-tyrosyl-phorphorylated peptides to its Src Homology 2 (SH2) domains. The latter activation step leads to the release of the auto-inhibitory interface of SHP2, which in turn renders the SHP2 protein tyrosine phosphatase (PTP) active and available for substrate recognition and reaction catalysis. The catalytic activity of SHP2 was monitored using the surrogate substrate DiFMUP in a prompt fluorescence assay format.
After 30-60 minutes incubation at 25° C., the surrogate substrate DiFMUP (Invitrogen, cat #D6567) was added to the reaction and incubated at 25° C. for 30 minutes. […] The inhibitor dose response curves were analyzed using normalized IC50 regression curve fitting with control based normalization.

Chain of SHP2 (Q06124 whole entry): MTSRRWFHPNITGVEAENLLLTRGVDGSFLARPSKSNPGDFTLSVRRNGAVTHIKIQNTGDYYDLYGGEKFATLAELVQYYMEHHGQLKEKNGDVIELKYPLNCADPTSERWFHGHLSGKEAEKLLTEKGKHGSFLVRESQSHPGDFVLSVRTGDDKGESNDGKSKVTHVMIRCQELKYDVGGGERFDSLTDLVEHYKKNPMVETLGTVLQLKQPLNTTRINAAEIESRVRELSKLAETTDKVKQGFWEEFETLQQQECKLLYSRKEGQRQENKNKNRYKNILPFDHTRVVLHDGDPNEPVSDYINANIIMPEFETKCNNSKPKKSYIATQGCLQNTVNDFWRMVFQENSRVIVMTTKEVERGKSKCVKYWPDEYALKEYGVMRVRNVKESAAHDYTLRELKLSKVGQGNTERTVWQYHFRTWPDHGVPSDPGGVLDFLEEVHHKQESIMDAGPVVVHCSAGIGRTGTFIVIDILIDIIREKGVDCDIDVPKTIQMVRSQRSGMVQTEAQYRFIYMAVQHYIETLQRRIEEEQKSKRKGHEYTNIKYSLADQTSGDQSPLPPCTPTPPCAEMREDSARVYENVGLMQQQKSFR

Q: `CC1(N)CCN(c2nnc(Sc3cccc(NC(=O)C4=C(O)CN(c5ccccc5)C4=O)c3Cl)c(N)n2)CC1` [Example 52, N-(3-((5-amino-3-(4-amino-4-methylpiperidin-1-yl)-1,2,4-triazin-6-yl)thio)-2-chlorophenyl)-4-hydroxy-2-oxo-1-phenyl-2,5-dihydro-1H-pyrrole-3-carboxamide] was tested. Which IC50 did it give?
A: 3 nM

Q: How did the IC50 turn out when `CC1(N)CCN(c2cnc(Sc3cccc(NC(=O)C4=C(O)CN(c5ccccc5)C4=O)c3Cl)c(N)n2)CC1` [Example 53, N-(3-((3-amino-5-(4-amino-4-methylpiperidin-1-yl)pyrazin-2-yl)thio)-2-chlorophenyl)-4-hydroxy-2-oxo-1-phenyl-2,5-dihydro-1H-pyrrole-3-carboxamide] was run?
A: 4.4 nM

Q: `CN1C(=O)C(C(=O)Nc2cccc(Sc3ncc(N4CCC(C)(N)CC4)nc3N)c2Cl)=C(O)C1Cc1ccccc1` (stereo not shown) [Example 54, N-(3-((3-amino-5-(4-amino-4-methylpiperidin-1-yl)pyrazin-2-yl)thio)-2-chlorophenyl)-5-benzyl-4-hydroxy-1-methyl-2-oxo-2,5-dihydro-1H-pyrrole-3-carboxamide] was tested. Which IC50 did it give?
A: 7.3 nM

Q: `CCC1C(O)=C(C(=O)Nc2cccc(Sc3ncc(N4CCC(C)(N)CC4)nc3N)c2Cl)C(=O)N1C` (stereo not shown) [Example 55, N-(3-((3-amino-5-(4-amino-4-methylpiperidin-1-yl)pyrazin-2-yl)thio)-2-chlorophenyl)-5-ethyl-4-hydroxy-1-methyl-2-oxo-2,5-dihydro-1H-pyrrole-3-carboxamide] was tested. Which IC50 did it give?
A: 2.8 nM

Q: With `CNC1(C)CCN(c2cnc(Sc3cccc(NC(=O)C4=C(O)CN(c5ccccc5)C4=O)c3Cl)c(N)n2)CC1` [Example 56, N-(3-((3-amino-5-(4-methyl-4-(methylamino)piperidin-1-yl)pyrazin-2-yl)thio)-2-chlorophenyl)-4-hydroxy-2-oxo-1-phenyl-2,5-dihydro-1H-pyrrole-3-carboxamide] as the compound, how does the IC50 read?
A: 6.6 nM

Q: Which IC50 does the source give for `C[C@@H]1CN(c2cnc(Sc3cccc(NC(=O)C4=C(O)CN(c5ccccc5)C4=O)c3Cl)c(N)n2)C[C@H](C)N1` [Example 57, N-(3-((3-amino-5-(cis-3,5-dimethylpiperazin-1-yl)pyrazin-2-yl)thio)-2-chlorophenyl)-4-hydroxy-2-oxo-1-phenyl-2,5-dihydro-1H-pyrrole-3-carboxamide] here?
A: 11 nM

Q: For `CC1(N)CCN(c2cnc(Sc3cccc(NC(=O)c4c(O)c5ccccc5[nH]c4=O)c3Cl)c(N)n2)CC1` [Example 58, N-(3-((3-Amino-5-(4-amino-4-methylpiperidin-1-yl)pyrazin-2-yl)thio)-2-chlorophenyl)-4-hydroxy-2-oxo-1,2-dihydroquinoline-3-carboxamide], which IC50 is on record?
A: 72 nM

Q: `CN1C(=O)C(C(=O)Nc2cccc(Sc3ncc(N4CCC(C)(N)CC4)nc3N)c2Cl)=C(O)C1(C)C` [Example 59, N-(3-((3-amino-5-(4-amino-4-methylpiperidin-1-yl)pyrazin-2-yl)thio)-2-chlorophenyl)-4-hydroxy-1,5,5-trimethyl-2-oxo-2,5-dihydro-1H-pyrrole-3-carboxamide] was tested. Which IC50 did it give?
A: < 3 nM

Q: Which IC50 does the source give for `O=C(Nc1cccc(Sc2ccc3nc(N4CCCCC4)[nH]c3n2)c1Cl)C1=C(O)[C@H](Cc2ccccc2)NC1=O` [Example 60, (S)-5-benzyl-N-(2-chloro-3-((2-(piperidin-1-yl)-3H-imidazo[4,5-b]pyridin-5-yl)thio)phenyl)-4-hydroxy-2-oxo-2,5-dihydro-1H-pyrrole-3-carboxamide] here?
A: 11 nM

Q: With `CN1C(=O)C(C(=O)Nc2cccc(Sc3ccc4nc(N5CCCCC5)[nH]c4n3)c2Cl)=C(O)C1Cc1ccccc1` (stereo not shown) [Example 61, 5-benzyl-N-(2-chloro-3-((2-(piperidin-1-yl)-3H-imidazo[4,5-b]pyridin-5-yl)thio)phenyl)-4-hydroxy-1-methyl-2-oxo-2,5-dihydro-1H-pyrrole-3-carboxamide] as the compound, how does the IC50 read?
A: 22 nM

Q: With `CCC1C(O)=C(C(=O)Nc2cccc(Sc3ccc4nc(N5CCCCC5)[nH]c4n3)c2Cl)C(=O)N1C` (stereo not shown) [Example 62, N-(2-chloro-3-((2-(piperidin-1-yl)-3H-imidazo[4,5-b]pyridin-5-yl)thio)phenyl)-5-ethyl-4-hydroxy-1-methyl-2-oxo-2,5-dihydro-1H-pyrrole-3-carboxamide] as the compound, how does the IC50 read?
A: 25 nM

Q: Which IC50 does the source give for `CCC1C(O)=C(C(=O)Nc2cccc(Sc3ccc4nc(N5CCCCC5)[nH]c4n3)c2Cl)C(=O)N1c1ccccc1` (stereo not shown) [Example 63, N-(2-chloro-3-((2-(piperidin-1-yl)-3H-imidazo[4,5-b]pyridin-5-yl)thio)phenyl)-5-ethyl-4-hydroxy-2-oxo-1-phenyl-2,5-dihydro-1H-pyrrole-3-carboxamide] here?
A: 52 nM

Q: How did the IC50 turn out when `O=C(Nc1cccc(Sc2ccc3nc(N4CCCCC4)[nH]c3n2)c1Cl)C1=C(O)[C@H](c2ccccc2)NC1=O` [Example 64, (S)-N-(2-chloro-3-((2-(piperidin-1-yl)-3H-imidazo[4,5-b]pyridin-5-yl)thio)phenyl)-4-hydroxy-2-oxo-5-phenyl-2,5-dihydro-1H-pyrrole-3-carboxamide] was run?
A: 90 nM

Q: `CN1C(=O)C(C(=O)Nc2cccc(Sc3ccc4nc(N5CCCCC5)[nH]c4n3)c2Cl)=C(O)C1(C)C` [Example 65, N-(2-chloro-3-((2-(piperidin-1-yl)-3H-imidazo[4,5-b]pyridin-5-yl)thio)phenyl)-4-hydroxy-1,5,5-trimethyl-2-oxo-2,5-dihydro-1H-pyrrole-3-carboxamide] was tested. Which IC50 did it give?
A: 42 nM

Q: Which IC50 does the source give for `CC1(N)CCN(c2cnc(Sc3cccc(NC(=O)C4=C(O)CN(c5ccccc5)C4=O)c3)c(N)n2)CC1` [Example 66, N-(3-((3-Amino-5-(4-amino-4-methylpiperidin-1-yl)pyrazin-2-yl)thio)phenyl)-4-hydroxy-2-oxo-1-phenyl-2,5-dihydro-1H-pyrrole-3-carboxamide] here?
A: 17 nM

Q: `CC1(N)CCN(c2cnc(Sc3cccc(NC(=O)C4=C(O)CN(c5ccccc5)C4=O)c3C(F)(F)F)c(N)n2)CC1` [Example 67, N-(3-((3-Amino-5-(4-amino-4-methylpiperidin-1-yl)pyrazin-2-yl)thio)-2-(trifluoromethyl)phenyl)-4-hydroxy-2-oxo-1-phenyl-2,5-dihydro-1H-pyrrole-3-carboxamide] was tested. Which IC50 did it give?
A: 4 nM
